According to patent US9358247B2, “Methods and compositions for promoting activity of anti-cancer therapies” (Oncology Research International Limited, priority 2006, dated 2016):
Where two headings read alike, the source gives them in different places.

Legend:
[1] = system: HT29 human cells; assay: In vivo tumour volume, HT29 cells subcutaneously introduced into mice, 5-fluorouracil and deltonin; set-up: species or system Balb/c nude female mice; conditions: 5-Fluorouracil 37.5 mg/kg 1 × weekly
Source text: 5-Fluorouracil (5FU) is the principal chemotherapeutic drug used in treating colon cancer; it is most commonly co-administered with other chemotherapeutic agents. This study compared the co-administration of 5-fluoruracil and deltonin, with administration of mono-administration of both 5-fluorourcil and deltonin.
72 female Balb/c nude female mice were microchipped, weighed and randomised based on body weight into 8 groups with 9 mice per group. […]
HT29 human […] carcinoma cells were cultured in RPMI1640 cell culture medium, which was supplemented with 10% FBS and penicillin-streptomycin (50 IU/mL final concentration). The cells were harvested by trypsinisation, washed twice in HBSS and counted. The cells were then resuspended in HBSS and adjusted to a final volume containing 2×10^7 cells/mL. For inoculation, the needle was introduced through the skin into the subcutaneous space just below the right shoulder, where 100 μL of cells (2×10^6) were discharged.
When the tumour volumes had reached an average of greater than 200 mm^3, treatment was started (Day 0). Tumour volumes were measured 3-times weekly, and determined according to the formula: V(mm^3)=length×diameter^2×π/6
Treatment was continued for 17 days. The mean tumour volumes for each dosage regime are given in Table 24 and are presented graphically in FIG. 1: […]

[2] = system: A549 cell line; assay: Cancer cell growth inhibition, SRB dye assay (single agents and 50:50 IC50 mixtures); type: cell-based, human
Method: (§1) Cancer cells were seeded the day before application of drug in triplicate or quadruplicate in 96-well plates, allowed to grow in the presence of drug for 6 days before cell growth relative to untreated control wells was determined with a dye assay.
(§2) Cells were seeded in triplicate or quadruplicate at 3-4,000 per microtitre well in 90 μl of RPMI culture medium/10% foetal calf serum/penicillin, streptomycin mix, treated with 10 μl of drug (prepared in a dilution plate at 10× concentration required), and allowed to grow until the controls were nearly confluent (6 days).
(§3) SRB: Plates were washed with PBS, fixed with methylated spirits, washed with tap water and stained with 50 μL/well of SRB solution (sulforhodamine, 0.4% in 1% acetic acid), followed by washing with tap water and 1% acetic acid, solubilisation in Tris and absorbance read at 564 nm in an ELISA reader.
(§4) Data was collected using ELISA plate reader software—SOFTmax PRO3.1.2, then imported into EXCEL. The mean and SD of replicates were calculated as a % of control, after subtraction of the blank value (wells with no cells). A graph was plotted of % control vs dose of agent and IC50 (half maximal inhibitory concentration) values determined.
(§5) Tumour cells were seeded in duplicate in 96-well plates at 2-5,000 per microtitre well containing RPMI culture medium/10% foetal calf serum. The cells were allowed to grow until the controls were nearly confluent after 5-6 days. Plates were then washed with PBS, fixed in ethanol and stained with 50 μL/well of SRB solution (sulforhodamine, 0.4% in 1% acetic acid), followed by washing with 1% acetic acid and solubilisation in Tris. The absorbance was read at 564 nm using an ELISA reader.
(§6) The IC50, or concentration required to inhibit cell growth by 50%, was determined from the percentage inhibition versus concentration data using the probit calculation methods of Finney (Finney D J (1971). Probit Analysis. 3rd Edition. Cambridge University Press).
(§7) The inhibitory data from each mixture was used to determine an IC50 of IC50 value, where the concentrations used were the Multiplying Factor values. In order to determine the actual IC50 contribution of each component in the two-component mixture, the IC50 of IC50 value was multiplied by the IC50 of the individual component. This can then be used to determine the reduction in IC50 contribution (ie, reduction in dose) of the chemotherapeutic agent due to the presence of the steroid saponin in the mixture. A simpler way of determining the reduction in dose is to use the following simple formula: […]

[3] = system: DU145 cell line; assay: as above; type: cell-based, human; conditions: single agent, Example 2
Method: as §1, §2, §3, §4, §5, §6, §7

[4] = system: HT29 cell line; assay: as above; type: cell-based, human; conditions: single agent, Example 2
Method: as §1, §2, §3, §4, §5, §6, §7

[5] = system: PC3 cell line; assay: as above; type: cell-based, human; conditions: single agent, Example 2
Method: as §1, §2, §3, §4, §5, §6, §7

[6] = system: LNCap cell line; assay: as above; type: cell-based, human; conditions: for Vincristine Dose Reduction: 50:50 IC50 mixture vs vincristine alone, Example 3
Method: (§8) Cancer cells were seeded the day before application of drug in triplicate or quadruplicate in 96-well plates, allowed to grow in the presence of drug for 6 days before cell growth relative to untreated control wells was determined with a dye assay. Cells were seeded in triplicate or quadruplicate at 3-4,000 per microtitre well in 90 μl of RPMI culture medium/10% foetal calf serum/penicillin, streptomycin mix, treated with 10 μl of drug (prepared in a dilution plate at 10× concentration required), and allowed to grow until the controls were nearly confluent (6 days). SRB: Plates were washed with PBS, fixed with methylated spirits, washed with tap water and stained with 50 μL/well of SRB solution (sulforhodamine, 0.4% in 1% acetic acid), followed by washing with tap water and 1% acetic acid, solubilisation in Tris and absorbance read at 564 nm in an ELISA reader. Data was collected using ELISA plate reader software—SOFTmax PRO3.1.2, then imported into EXCEL. The mean and SD of replicates were calculated as a % of control, after subtraction of the blank value (wells with no cells). A graph was plotted of % control vs dose of agent and IC50 (half maximal inhibitory concentration) values determined. […] The cells were allowed to grow until the controls were nearly confluent after 5-6 days. Plates were then washed with PBS, fixed in ethanol and stained with 50 μL/well of SRB solution (sulforhodamine, 0.4% in 1% acetic acid), followed by washing with 1% acetic acid and solubilisation in Tris. The absorbance was read at 564 nm using an ELISA reader. […] Cambridge University Press). […] The inhibitory data from each mixture was used to determine an IC50 of IC50 value, where the concentrations used were the Multiplying Factor values. In order to determine the actual IC50 contribution of each component in the two-component mixture, the IC50 of IC50 value was multiplied by the IC50 of the individual component. This can then be used to determine the reduction in IC50 contribution (ie, reduction in dose) of the chemotherapeutic agent due to the presence of the steroid saponin in the mixture. A simpler way of determining the reduction in dose is to use the following simple formula: […]

[7] = system: MCF7 cell line; assay: as above; type: cell-based, human; conditions: for Vincristine Dose Reduction: 50:50 IC50 mixture vs vincristine alone, Example 3
Method: as §8

[8] = system: K562 cell line; assay: as above; type: cell-based, human
Method: as §1, §2, §3, §4, §5, §6, §7
The cell seeding and ELISA plate methodology of Example 2 were used for determining inhibition of the K562 cell line.

[9] = system: PC3, DU145, A549 and HT29 cell lines; assay: Cancer cell growth inhibition, IC50 values used in assay for four cell lines (Example 5); type: cell-based, human; conditions: value used to make up 50:50 IC50 mixtures
Method: as §5, §6
The cell seeding and ELISA plate methodology of Example 2 were used for determining inhibition of four cancer cell lines. IC50 values were determined for the steroid saponins dioscin, deltonin and prosapogenin A, and their mixtures with cisplatin, docetaxel, doxorubicin and vincristine, using PC3, DU145, A549 and HT29 cell lines.

[10] = single agent, Example 2, read-out: IC50
[11] = Example 3, value used to make up 50:50 IC50 mixtures, read-out: IC50 values used in assay
[12] = Homo sapiens, 144 h, Example 4, value used to make up 50:50 IC50 mixtures, read-out: IC50 values used in assay
[13] = Homo sapiens, 144 h, Example 3, value used to make up 50:50 IC50 mixtures, read-out: IC50 values used in assay
[14] = Homo sapiens, 144 h, single agent, Example 2, read-out: IC50
[15] = Example 4, value used to make up 50:50 IC50 mixtures, read-out: IC50 values used in assay

SMILES	IC50 [6, 13]	IC50 [7, 13]	IC50 ([9]; Homo sapiens)	IC50 [2, 14]	IC50 ([3]; Homo sapiens, DU-145, 144 h)	IC50 ([4]; Homo sapiens, HT-29, 144 h)	IC50 ([5]; Homo sapiens, PC-3, 144 h)	IC50 [6, 14]	IC50 [7, 14]	IC50 [8, 14]	other results
O=c1[nH]cc(F)c(=O)[nH]1 [5-Fluorouracil (5FU), 5-Fluorouracil]	–	–	–	–	–	–	–	–	–	–	Mean tumour volume ([1]; Day 0): 236 mm^3; Mean tumour volume ([1]; Day 2): 280 mm^3; Mean tumour volume ([1]; Day 4): 307 mm^3; Mean tumour volume ([1]; Day 7): 330 mm^3; Mean tumour volume ([1]; Day 9): 432 mm^3; Mean tumour volume ([1]; Day 11): 511 mm^3; Mean tumour volume ([1]; Day 14): 681 mm^3; Mean tumour volume ([1]; Day 16): 676 mm^3; Mean tumour volume ([1]; Day 18): 824 mm^3
N.N.[Cl][Pt][Cl] [Cisplatin]	–	–	–	–	–	–	–	–	–	–	IC50 [2, 10]: 1200 nM; IC50 [3]: 540 nM; IC50 [4]: 930 nM; IC50 [5]: 1400 nM; IC50 [6, 11]: 800 nM; IC50 [6, 10]: 700 nM; IC50 [7, 11]: 800 nM; IC50 [7, 10]: 650 nM; IC50 [8, 10]: 820 nM; IC50 [9]: 800 nM
C[C@@H]1CC[C@@]2(OC1)O[C@H]1C[C@H]3[C@@H]4CC=C5C[C@@H](O[C@@H]6O[C@H](CO)[C@@H](O[C@@H]7O[C@@H](C)[C@H](O)[C@@H](O)[C@H]7O)[C@H](O)[C@H]6O[C@@H]6O[C@@H](C)[C@H](O)[C@@H](O)[C@H]6O)CC[C@]5(C)[C@H]4CC[C@]3(C)[C@H]1[C@@H]2C [Dioscin, diosgenin Rha2, [Rha4], Glc]	1000 nM	1000 nM	1000 nM	–	–	–	–	–	–	–	IC50 [2, 12]: 1000 nM; Vincristine Dose Reduction [6]: consistent reduction in dosage; Vincristine Dose Reduction [7]: consistent reduction in dosage; IC50 ([8]; Homo sapiens, 144 h, Example 6, value used to make up 50:50 IC50 mixtures, read-out: IC50 values used in assay): 1000 nM
CC(=O)O[C@H]1C(=O)[C@@]2(C)[C@H]([C@H](OC(=O)c3ccccc3)[C@]3(O)C[C@H](OC(=O)[C@H](O)[C@@H](NC(=O)c4ccccc4)c4ccccc4)C(C)=C1C3(C)C)[C@]1(OC(C)=O)CO[C@@H]1C[C@@H]2O [Paclitaxel]	–	–	–	3.2 nM	2.7 nM	> 3.3 nM	2.1 nM	1.2 nM	1.1 nM	> 3.3 nM	IC50 [2, 12]: 3 nM; IC50 [7, 12]: 1 nM
C[C@@H]1CC[C@@]2(OC1)O[C@H]1C[C@H]3[C@@H]4CC=C5C[C@@H](O[C@@H]6O[C@H](CO)[C@@H](O)[C@H](O)[C@H]6O[C@@H]6O[C@@H](C)[C@H](O)[C@@H](O)[C@H]6O)CC[C@]5(C)[C@H]4CC[C@]3(C)[C@H]1[C@@H]2C [Prosapogenin A, diosgenin Rha2, Glc]	–	–	–	–	–	–	–	–	–	–	IC50 [2, 15]: 2000 nM; Vincristine Dose Reduction [6]: effectively zero reduction; IC50 [6, 11]: 2000 nM; Vincristine Dose Reduction [7]: effectively zero reduction; IC50 [7, 11]: 2000 nM; IC50 [7, 15]: 2000 nM; IC50 ([8]; Example 6, value used to make up 50:50 IC50 mixtures, read-out: IC50 values used in assay): 2000 nM; IC50 [9]: 2000 nM

Now from value to compound, other results behind:

IC50 [6, 13]	IC50 [7, 13]	IC50 ([9]; Homo sapiens)	IC50 [2, 14]	IC50 ([3]; Homo sapiens, DU-145, 144 h)	IC50 ([4]; Homo sapiens, HT-29, 144 h)	IC50 ([5]; Homo sapiens, PC-3, 144 h)	IC50 [6, 14]	IC50 [7, 14]	IC50 [8, 14]	SMILES	other results
0.03 nM	0.03 nM	0.2 nM	0.27 nM	0.15 nM	0.51 nM	0.09 nM	0.026 nM	0.039 nM	0.42 nM	CC(=O)O[C@@]12CO[C@@H]1C[C@H](O)[C@@]1(C)C(=O)[C@H](O)C3=C(C)[C@@H](OC(=O)[C@H](O)[C@@H](NC(=O)OC(C)(C)C)c4ccccc4)C[C@@](O)([C@@H](OC(=O)c4ccccc4)[C@H]21)C3(C)C [Docetaxel]	–
4 nM	15 nM	15 nM	16 nM	11 nM	28 nM	22 nM	3.9 nM	14 nM	8.5 nM	COc1cccc2c1C(=O)c1c(O)c3c(c(O)c1C2=O)C[C@@](O)(C(=O)CO)C[C@@H]3O[C@H]1C[C@H](N)[C@H](O)[C@H](C)O1 [Doxorubicin]	–
0.5 nM	0.5 nM	2.5 nM	6 nM	2.9 nM	2.4 nM	1.1 nM	0.49 nM	0.49 nM	0.21 nM	CC[C@]1(O)C[C@H]2CN(CCc3c([nH]c4ccccc34)[C@@](C(=O)OC)(c3cc4c(cc3OC)N(C=O)[C@H]3[C@@](O)(C(=O)OC)[C@H](OC(C)=O)[C@]5(CC)C=CCN6CC[C@]43[C@@H]65)C2)C1 [Vincristine]	–
